In patent US20050074867A1, “Preservation of competent cells at ambient temperatures” (priority 2001, published 2005) one finds survived drying data, which are given here for one molecule.

In this test the test system is logarithmic E. coli cells. The test is described as follows: Preservation survival and stability of logarithmic E. coli cells loaded in vitro before foam drying. The class given is cell-based. The protocol:
(3) Loading of fresh electrocompetent E. coli cells before preservation: When applicable, one aliquot of the cell concentrate (3.2 ml of cells in PBS buffer, approx. 2×10^10 cfu/ml) was mixed with 0.8 ml of 50% methyl-glucoside (MAG; 10% final concentration) and incubated at 37° C. for 30 minutes (in vitro loading). A second aliquot (3.2 ml of the cell concentrate) was mixed with 0.8 ml of PBS buffer and incubated on ice for 30 minutes (control, unloaded cells). Similar to loading with MAG, the cells were loaded with 2-deoxyglucose (2-DOG) as described in Example 5 infra.
(4) Preservation of electrocompetent E. coli cells: The cells (resuspended in PBS buffer or on 20% sucrose) were mixed with an equal mass of preservation solution consisting of 45% 2:1 sucrose:raffinose or 45% 4:1 sucrose:MAG on ice. Altematively, the cell pellets were resuspended directly in 22.5% sucrose:raffinose or 22.5% 4:1 sucrose:MAG. The 0.5 g aliquots were distributed in 5 ml glass serum vials or 0.2 g aliquots were distributed in 1.2 ml glass serum vials. To determine the survival in preservation solution before drying, cell-containing mixtures were diluted in PBS buffer containing 20% sucrose and appropriate dilutions were spread plated in duplicate on L-agar plates.
The samples were dried by foam formation. The mixtures were foamed at 0° C. and kept at that temperature until foam formation occurred. After foam was well formed, shelf temperature was increased to 20° C. and drying continued overnight (at least 12 hours).
(5) Assaying the preserved E. coli cells: Dried samples were rehydrated at room temperature. 1 ml of rehydration solution (20% sucrose) was added to the 5 ml vials and 0.2 ml was added to the 1.2 ml vials. For the determination of preservation survival, rehydrated cells were diluted and spread plated in duplicate on L-agar plates. Plates were incubated at 37° C. overnight and colonies were counted the following day.
Bacterial culture was grown until OD550=0.5 was reached (mid-log growth stage). The cell concentrates were prepared as described previously. Control cells, which were not loaded, were incubated on ice for 30 minutes. Cell concentrates were incubated with different amounts (0.15-1%, 5%, 10% and 15%) of glucose and glucose nonmetabolizable analogs at 37° C. for 30 minutes (loading). These mixtures were preserved as described previously.
Accumulation of MAG in the cells prior to drying enhances preservation of logarithmic E. coli cells. Two cell concentrates (harvested at mid-log growth stage) were prepared as described previously. To induce uptake of MAG, 0.5% glucose was added to the growth medium (“induced culture”). Both concentrates were incubated with 10% MAG at 37° C. for 30 minutes (loading). When loading was completed, one concentrate was diluted 100-fold in PBS buffer and incubated at 37° C. for an additional 30 minutes to induce expulsion of the pre-accumulated MAG. Both concentrates were preserved as described previously.
Mid-logarithmic culture was prepared as described previously. 0.5% glucose was added to the growth medium (“induced cells”). The culture was concentrated 10-fold and the concentrates were incubated for 30 minutes with 10% MAG at different temperatures (0, 20, 40, and 60° C.). The mixtures were preserved as described previously.
Effect of incubation time on accumulation of MAG in logarithmic E. coli cells. Cell concentrates were prepared as described previously (0.5% glucose was added to the growth medium) and incubated with 10% MAG at 37° C. for 0, 2.5, 5, 15, 30, and 60 minutes. The mixtures were preserved as described previously.
Effect of growth stage on accumulation of MAG in E. coli cells. E. coli cultures were grown in L-broth with 0.5% glucose as described previously and harvested at OD550=0.1 (early-log), 0.5 (mid-log), 1.0 (late-log) and 2.0 (stationary cells). The cells in each culture were concentrated and split in two aliquots. […]

`O=CC[C@@H](O)[C@H](O)[C@H](O)CO` [Sample 2-DOG, 2-deoxyglucose]: the survived drying by setting is: (mid-logarithmic cells loaded with 0.1-1% at 37° C. for 30 minutes) 9-12%; (mid-logarithmic cells loaded with 5% at 37° C. for 30 minutes) 20%; (mid-logarithmic cells loaded with 10% at 37° C. for 30 minutes) 16%; (mid-logarithmic cells loaded with 15% at 37° C. for 30 minutes) 20%.
